Measured values taken from patent US20220073536A1 (Rigel Pharmaceuticals, Inc., priority 2003, published 2022).

Key:
[1] = system: cultured human mast cells (CHMC); assay: CHMC low cell density IgE activation: tryptase assay; format: cell-based; conditions: low cell density, IgE activation
How it was run: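 Tryptase release was read from supernatant with a fluorogenic substrate (30 min, room temperature) after anti-IgE challenge of cultured human mast cells (1000–1500 cells/well, low density) for 30 minutes at 37° C.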

[2] = system: cultured human mast cells (CHMC); assay: CHMC low cell density ionomycin activation: tryptase assay; format: cell-based; conditions: low cell density, 3 pt, read-out: LD Tryptase, CHMC, Iono, 3 pt
[3] = Homo sapiens, Mast cell, 3 pt, read-out: LD Tryptase, CHMC, IgE, 3 pt
[4] = Homo sapiens, Mast cell, 8 pt, read-out: LD Tryptase, CHMC, IgE, 8 pt
[5] = 3 pt, read-out: LD Tryptase, CHMC, IgE, 3 pt
[6] = 8 pt, read-out: LD Tryptase, CHMC, IgE, 8 pt

Row | Structure (SMILES) | IC50 [1, 3] | IC50 [1, 4] | IC50 ([2]; Homo sapiens, Mast cell) | IC50 [1, 5] | IC50 [1, 6] | IC50 [2]
1 | CNC(=O)c1cc(Nc2ccnc(Nc3ccc4cc[nH]c4c3)n2)ccc1Cl [Compound 479, N4-[4-Chloro-3-(N-methylamino)carbonylphenyl]-N2-(indol-6-yl)-2,4-pyrimidinediamine] | < 10 µM | – | > 10 µM | – | – | –
2 | COc1ncc(F)c(N(C)c2ccc3c(c2)OCCO3)n1 [Compound 480] | > 10 µM | – | > 10 µM | – | – | –
3 | Nc1cccc(Nc2nc(Cl)ncc2F)n1 [Compound 486, N4-(2-Aminopyrid-6-yl)-2-chloro-5-fluoro-4-pyrimidineamine] | > 10 µM | – | > 10 µM | – | – | –
4 | CN(c1ccc2c(c1)OCCO2)c1nc(N)ncc1F [Compound 487, N4-(3,4-Ethylenedioxyphenyl)-5-fluoro-N4-methyl-2,4-pyrimidinediamine] | > 10 µM | – | > 10 µM | – | – | –
5 | COc1cc(OC)cc(N(C)c2nc(Cl)ncc2F)c1 [Compound 488] | < 10 µM | – | > 10 µM | – | – | –
6 | CCOC(=O)c1cc2cccc(Nc3ncc(F)c(NCCO)n3)c2[nH]1 [Compound 489] | > 10 µM | – | > 10 µM | – | – | –
7 | COc1ccc(N(C)c2nc(Cl)ncc2F)c(OC)n1 [Compound 490] | > 10 µM | – | > 10 µM | – | – | –
8 | CNS(=O)(=O)c1ccc(Nc2ncc(F)c(Nc3ccc4c(c3)OCCO4)n2)cc1OC [Compound 493, N4-(3,4-Ethylenedioxyphenyl)-5-fluoro-N2-[4-(N-methylamino)sulfonyl-3-methoxyphenyl]-2,4-pyrimidinediamine] | < 10 µM | < 10 µM | > 10 µM | – | – | –
9 | CNS(=O)(=O)c1ccc(Nc2ncc(F)c(Nc3ccc4c(c3)NC(=O)C(C)(C)O4)n2)cc1OC [Compound 496, N4-(2,2-Dimethyl-3-oxo-4H-benz[1,4]oxazin-6-yl)-5-fluoro-N2-[3-methoxyphenyl-4-(methylamino)sulfonyl]-2,4-pyrimidinediamine] | – | – | – | < 10 µM | < 10 µM | < 10 µM
10 | CNS(=O)(=O)c1ccc(Nc2ncc(F)c(Nc3ccc(OC(F)(F)F)c(Cl)c3)n2)cc1OC [Compound 498, N4-(3-Chloro-4-trifluoromethoxyphenyl)-5-fluoro-N2-[4-(3-methoxyphenyl-N-methylamino)sulfonyl]-2,4-pyrimidinediamine] | – | – | – | < 10 µM | < 10 µM | > 10 µM
11 | CNc1ncc(F)c(N(C)c2ccc(OC)nc2OC)n1 [Compound 500] | > 10 µM | – | > 10 µM | – | – | –
12 | CNc1ncc(F)c(N(C)c2cc(Cl)c(OC)c(Cl)c2)n1 [Compound 501] | > 10 µM | – | > 10 µM | – | – | –
13 | CNS(=O)(=O)c1ccc(Nc2nc(Cl)ncc2F)cc1OC [Compound 502, 2-Chloro-5-fluoro-N4-[4-(N-methylamino)sulfonyl-3-methoxyphenyl]-2,4-pyrimidineamine] | – | – | – | > 10 µM | – | > 10 µM
14 | C=CCNc1ncc(F)c(N(C)c2ccc3c(c2)OCCO3)n1 [Compound 506, N2-Allyl-N4-(3,4-ethylenedioxyphenyl)-5-fluoro-N4-methyl-2,4-pyrimidinediamine] | > 10 µM | – | > 10 µM | – | – | –

Next, values leading:

Row | IC50 [1, 3] | IC50 [1, 4] | IC50 ([2]; Homo sapiens, Mast cell) | IC50 [1, 5] | IC50 [1, 6] | IC50 [2] | Structure (SMILES)
15 | < 10 µM | < 10 µM | > 10 µM | – | – | – | CNC(=O)c1cc(Nc2nc(Nc3cc(OC)cc(OC)c3)ncc2F)ccc1Cl [Compound 475, N4-[4-Chloro-3-(N-methylamino)carbonylphenyl]-N2-(3,5-dimethoxyphenyl)-5-fluoro-2,4-pyrimidinediamine]
16 | < 10 µM | < 10 µM | > 10 µM | – | – | – | CNC(=O)c1cc(Nc2nc(Nc3cc(C)cc(C)c3)ncc2F)ccc1Cl [Compound 476, N4-[4-Chloro-3-(N-methylamino)carbonylphenyl]-N2-(3,5-dimethylphenyl)-5-fluoro-2,4-pyrimidinediamine]
17 | – | – | – | < 10 µM | < 10 µM | > 10 µM | CNC(=O)COc1cccc(Nc2ncc(F)c(Nc3ccc(Cl)c(C(=O)NC)c3)n2)c1 [Compound 477, N4-[4-Chloro-3-(N-methylamino)carbonylphenyl]-5-fluoro-N2-[3-(N-methylamino)carbonylmethyleneoxyphenyl]-2,4-pyrimidinediamine]
18 | < 10 µM | – | > 10 µM | – | – | – | CNC(=O)c1ccc(Nc2ncc(F)c(Nc3ccc(Cl)c(C(=O)NC)c3)n2)cc1Cl [Compound 478, N2-[3-Chloro-4-(N-methylamino)carbonylphenyl]-N4-[4-chloro-3-(N-methylamino)carbonylphenyl]-5-fluoro-2,4-pyrimidinediamine]
19 | < 10 µM | < 10 µM | > 10 µM | – | – | – | CNC(=O)c1ccc(Nc2nc(Nc3cc(OC)cc(OC)c3)ncc2F)cc1Cl [Compound 481]
20 | < 10 µM | < 10 µM | > 10 µM | – | – | – | CNC(=O)c1ccc(Nc2nc(Nc3cc(C)cc(C)c3)ncc2F)cc1Cl [Compound 482]
21 | – | – | – | < 10 µM | < 10 µM | > 10 µM | CNS(=O)(=O)c1ccc(Nc2ncc(F)c(Nc3ccc(OC)c(OC)c3)n2)cc1OC [Compound 494, N4-(3,4-Dimethoxyphenyl)-5-fluoro-N2-[3-methoxyphenyl-4-(N-methylamino)sulfonyl]-2,4-pyrimidinediamine]
22 | – | – | – | < 10 µM | – | > 10 µM | CNS(=O)(=O)c1ccc(Nc2ncc(F)c(Nc3cc(OC)cc(OC)c3)n2)cc1OC [Compound 495, N4-(3,5-Dimethoxyphenyl)-5-fluoro-N2-[3-methoxyphenyl-4-(methylamino)sulfonyl]-2,4-pyrimidinediamine]
23 | – | – | – | < 10 µM | < 10 µM | > 10 µM | CNS(=O)(=O)c1ccc(Nc2ncc(F)c(Nc3ccc(Cl)c(C(F)(F)F)c3)n2)cc1OC [Compound 497, N4-(4-Chloro-3-trifluoromethylphenyl)-5-fluoro-N2-[3-methoxyphenyl-4-(methylamino)sulfonyl]-2,4-pyrimidinediamine]
24 | – | – | – | < 10 µM | < 10 µM | > 10 µM | CNS(=O)(=O)c1ccc(Nc2ncc(F)c(Nc3cccc(O)c3)n2)cc1OC [Compound 499, 5-Fluoro-N4-(3-hydroxyphenyl)-N2-[3-methoxyphenyl-4-(N-methylamino)sulfonyl]-2,4-pyrimidinediamine]
25 | – | – | – | < 10 µM | < 10 µM | > 10 µM | COc1cc(Nc2ncc(F)c(Nc3ccc(OCCO)nc3)n2)cc(OC)c1 [Compound 503, N2-(3,5-Dimethoxyphenyl)-5-fluoro-N4-[2-(2-hydroxyethyleneoxy)pyrid-5-yl]-2,4-pyrimidinediamine]
26 | – | – | – | < 10 µM | < 10 µM | > 10 µM | Cc1cc(C)cc(Nc2ncc(F)c(Nc3ccc(OCCO)nc3)n2)c1 [Compound 504, N2-(3,5-Dimethylphenyl)-5-fluoro-N4-[2-(2-hydroxyethyleneoxy)pyrid-5-yl]-2,4-pyrimidinediamine]
27 | – | – | – | < 10 µM | < 10 µM | > 10 µM | COc1ccc(Nc2ncc(F)c(Nc3ccc(OCCO)nc3)n2)cc1Cl [Compound 505, N2-(3-Chloro-4-methoxyphenyl)-5-fluoro-N4-[2-(2-hydroxyethyleneoxy)pyrid-5-yl]-2,4-pyrimidinediamine]
28 | < 10 µM | < 10 µM | > 10 µM | – | – | – | CNS(=O)(=O)c1ccc(Nc2nc(Nc3cc(OC)cc(OC)c3)ncc2F)cc1OC [Compound 507]
